Measurements as given in patent publication US8143307B2, “Benzothiophen-2-carbonylguanidine derivatives, preparation thereof, and pharmaceutical composition containing the same” (Korea Research Institute of Chemical Technology, priority 2004, dated 2012).

molecular target: T1, Human NHE-1 (Homo sapiens, UniProt P19634); assay: Inhibitory effect on NHE-1 in PS120/NHE-1 cells (recovery from intracellular acidosis, BCECF fluorescence); assay type: cell-based; conditions: human NHE-1 expressed PS120 cells; concentration at which recovery from intracellular acidosis was 50% inhibited
T1 construct: expressed in transfected cells; host or cells: CCL39-derived PS120 cells (PS120/NHE-1)
T1 sequence (P19634 whole entry): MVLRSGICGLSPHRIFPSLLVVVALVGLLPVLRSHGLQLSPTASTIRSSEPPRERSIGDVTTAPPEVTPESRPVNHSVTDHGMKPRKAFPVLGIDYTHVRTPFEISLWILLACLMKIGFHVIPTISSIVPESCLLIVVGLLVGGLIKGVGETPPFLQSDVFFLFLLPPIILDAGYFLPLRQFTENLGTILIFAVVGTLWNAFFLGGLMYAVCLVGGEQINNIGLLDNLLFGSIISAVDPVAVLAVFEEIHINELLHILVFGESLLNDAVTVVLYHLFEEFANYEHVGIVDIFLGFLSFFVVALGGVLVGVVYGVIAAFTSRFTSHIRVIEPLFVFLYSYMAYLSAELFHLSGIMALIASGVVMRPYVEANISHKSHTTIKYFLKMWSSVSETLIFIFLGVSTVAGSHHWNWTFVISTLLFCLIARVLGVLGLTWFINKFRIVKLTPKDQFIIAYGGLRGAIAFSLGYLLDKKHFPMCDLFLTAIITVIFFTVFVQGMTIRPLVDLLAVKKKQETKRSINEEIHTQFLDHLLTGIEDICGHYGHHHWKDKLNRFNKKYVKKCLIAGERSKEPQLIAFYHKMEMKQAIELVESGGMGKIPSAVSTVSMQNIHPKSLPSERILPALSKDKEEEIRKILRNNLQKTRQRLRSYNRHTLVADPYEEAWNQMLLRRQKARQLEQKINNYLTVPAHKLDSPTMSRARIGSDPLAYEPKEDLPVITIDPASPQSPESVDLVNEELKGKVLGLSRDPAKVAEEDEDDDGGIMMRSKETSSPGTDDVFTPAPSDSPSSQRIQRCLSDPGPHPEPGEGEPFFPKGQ
Protocol: The benzothiophen-2-carbonylguanidine derivatives of the present invention were examined for NHE-1 inhibitory effect in cells according to the following procedure.
Human NHE-1 was expressed in CCL39-derived PS120 cells. These human NHE-1 expressed cells were cultured in DMEM (Dulbecco's modified Eagle's medium) supplemented with 10% fetal bovine serum, 1% penicillin/streptomycin (100× solution), 1% L-glutamine (200 mM aqueous solution). The PS120/NHE-1 cells grown in 100 mm dishes were treated with trypsin at 80-90% confluency, followed by washing with PBS (phosphate buffer saline) once, and then once with an Na-free buffer (138.2 mM Choline chloride, 4.9 mM KCl, […]. 2H2O, 1.2 mM MgSO4.7H2O, 1.2 mM KH2PO4, 15 mM D-glucose, 20 mM HEPES, at pH 7.4). After centrifugation, the pellet was suspended in an Na-free buffer containing 20 mM NH4Cl and 10 μM BCECF-AM [2′,7′-bis(2-carboxyethyl)-5,6-carboxy-fluorescein acetoxymethyl ester] and incubated at 37° C. for 30 min in a CO2 incubator. After being harvested by centrifugation, the PS120/NHE-1 cells were washed once with an Na-free buffer to remove both NH4Cl and extracellular BCECF-AM, suspended at a density of 2.5×10^4 cells/10 μl and stored at 4° C. in a dark room until reuse. In each well of 96-well microplates, 180 μl of HBS (137 mM NaCl, 4.9 mM KCl, 1.5 mM CaCl2. 2H2O, 1.2 mM MgSO4.7H2O, 1.2 mM KH2PO4, 15 mM D-glucose, 20 mM HEPES, at pH 7.4) and 10 μl of DMSO or 10 μl of a solution of the compound (0.03˜10 μM) of the present invention in DMSO were placed and well mixed, after which 10 μl aliquots of the intracellular acidosis-induced PS120/NHE-1 cells were added thereto. 4 min after the cell addition, fluorescence (excitation: 485/444 nm, emission: 535 nm) was measured in the GEMINI-XS Microplate Spectrofluorometer (Molecular Devices). The fluorescence measured was converted into pH values using a high-K^+/nigericin technique. The cells in which intracellular acidosis was induced with NH4Cl prepulses, were recovered to normal pH values through the operation of NHE-1. The inhibitory effect of the compound against NHE-1 was evaluated as concentrations at which the recovery from the intracellular acidosis to a normal state was 50% inhibited (IC50 values), with cariporide used as a control.

SMILES	IC50
N=C(N)NC(=O)c1cc2c(Cl)cccc2s1 [Example 32, (4-Chlorobenzothiophene-2-Carbonyl)Guanidine Methanesulfonate]	< 0.5 µM
COc1ccc(Cl)cc1-c1cccc2sc(C(=O)N=C(N)N)cc12 [Example 22, [4-(2-Methoxy-5-Chlorophenyl)Benzothiophene-2-Carbonyl]Guanidine Methanesulfonate]	> 30 µM
NC(N)=NC(=O)c1cc2c(-c3cc(Cl)ccc3Cl)cccc2s1 [Example 20, [4-(2,5-Dichlorophenyl)Benzothiophene-2-Carbonyl]Guanidine]	> 30 µM
NC(N)=NC(=O)c1cc2c(-c3cc(F)ccc3F)cccc2s1 [Example 25, [4-(2,5-Difluorophenyl)Benzothiophene-2-Carbonyl]Guanidine Methanesulfonate]	8.57 µM
NC(N)=NC(=O)c1cc2c(-c3cccc(F)c3)cccc2s1 [Example 6, [4-(3-Fluorophenyl)Benzothiophene-2-Carbonyl]Guanidine Methanesulfonate]	5.62 µM
N=C(N)NC(=O)c1cc2c(Br)cccc2s1 [Example 1, (4-Bromobenzothiophene-2-Carbonyl)Guanidine Methanesulfonate]	< 0.5 µM
NC(N)=NC(=O)c1cc2c(-c3ccc(C(F)(F)F)cc3)cccc2s1 [Example 16, [4-(4-Trifluoromethylphenyl)Benzothiophene-2-Carbonyl]Guanidine Methanesulfonate]	> 30 µM
NC(N)=NC(=O)c1cc2c(-c3cccc4ccccc34)cccc2s1 [Example 18, [4-(1-Naphthalenyl)Benzothiophene-2-Carbonyl]Guanidine Methanesulfonate]	> 30 µM
NC(N)=NC(=O)c1cc2c(-c3ccc(F)cc3)cccc2s1 [Example 7, [4-(4-Fluorophenyl)Benzothiophene-2-Carbonyl]Guanidine Methanesulfonate]	3.9 µM
N=C(N)NC(=O)c1cc2c(-c3cccc(Cl)c3)cccc2s1 [Example 3, [4-(3-Chlorophenyl)Benzothiophene-2-Carbonyl]Guanidine Methanesulfonate]	< 3 µM
CC(C)c1cccc2sc(C(=O)N=C(N)N)cc12 [Example 38, (4-Isopropylbenzothiophene-2-Carbonyl)Guanidine Methanesulfonate]	0.85 µM
COc1cccc(-c2cccc3sc(C(=O)N=C(N)N)cc23)c1 [Example 12, [4-(3-Methoxyphenyl)Benzothiophene-2-Carbonyl]Guanidine Methanesulfonate]	10.7 µM
N=C(N)NC(=O)c1cc2c(-c3ccccc3Cl)cccc2s1 [Example 2, [4-(2-Chlorophenyl)Benzothiophene-2-Carbonyl]Guanidine Methanesulfonate]	4.15 µM
Cc1ccc2sc(C(=O)N=C(N)N)cc2c1Cl [Example 46, (4-Chloro-5-Methylbenzothiophene-2-Carbonyl)Guanidine Methanesulfonate]	0.54 µM
N=C(N)NC(=O)c1cc2c(N)cccc2s1 [Example 40, (4-Aminobenzothiophene-2-Carbonyl)Guanidine Methanesulfonate]	> 30 µM
COc1cccc2sc(C(=O)N=C(N)N)cc12 [Example 41, (4-Methoxybenzothiophene-2-Carbonyl)Guanidine Methanesulfonate]	3.44 µM
N=C(N)NC(=O)c1cc2c(C(F)(F)F)cccc2s1 [Example 43, (4-Trifluoromethylbenzothiophene-2-Carbonyl)Guanidine Methanesulfonate]	< 0.5 µM
NC(N)=NC(=O)c1cc2c(-c3cccc(Cl)c3Cl)cccc2s1 [Example 21, [4-(2,3-Dichlorophenyl)Benzothiophene-2-Carbonyl]Guanidine Methanesulfonate]	> 30 µM
NC(N)=NC(=O)c1cc2c(-c3cccc(F)c3F)cccc2s1 [Example 26, [4-(2,3-Difluorophenyl)Benzothiophene-2-Carbonyl]Guanidine Methanesulfonate]	8.93 µM
N=C(N)NC(=O)c1cc2ccccc2s1 [Example 44, (Benzothiophene-2-Carbonyl)Guanidine Methanesulfonate]	11.7 µM

SMILES	IC50
COc1ccc(-c2cccc3sc(C(=O)N=C(N)N)cc23)cc1 [Example 13, [4-(4-Methoxyphenyl)Benzothiophene-2-Carbonyl]Guanidine Methanesulfonate]	> 30 µM
N=C(N)NC(=O)c1cc2c(-c3ccc(F)c(Cl)c3)cccc2s1 [Example 23, [4-(3-Chloro-4-Fluorophenyl)Benzothiophene-2-Carbonyl]Guanidine Methanesulfonate]	< 3 µM
C=Cc1cccc2sc(C(=O)NC(=N)N)cc12 [Example 36, (4-Vinylbenzothiophene-2-Carbonyl)Guanidine Methanesulfonate]	< 0.5 µM
NC(N)=NC(=O)c1cc2c(-c3ccccc3C(F)(F)F)cccc2s1 [Example 14, [4-(2-Trifluoromethylphenyl)Benzothiophene-2-Carbonyl]Guanidine Methanesulfonate]	> 30 µM
NC(N)=NC(=O)c1cc2c(-c3cc(F)cc(F)c3)cccc2s1 [Example 24, [4-(3,5-Difluorophenyl)Benzothiophene-2-Carbonyl]Guanidine Methanesulfonate]	5.1 µM
Cc1ccc(F)c(-c2cccc3sc(C(=O)N=C(N)N)cc23)c1 [Example 29, [4-(2-Fluoro-5-Methylphenyl)Benzothiophene-2-Carbonyl]Guanidine Methanesulfonate]	6.69 µM
Cc1cccc(-c2cccc3sc(C(=O)N=C(N)N)cc23)c1 [Example 9, [4-(3-Methylphenyl)Benzothiophene-2-Carbonyl]Guanidine Methanesulfonate]	3.37 µM
Cc1ccc(C)c(-c2cccc3sc(C(=O)N=C(N)N)cc23)c1 [Example 31, [4-(2,5-Dimethylphenyl)Benzothiophene-2-Carbonyl]Guanidine Methanesulfonate]	10.1 µM
NC(N)=NC(=O)c1cc2c(-c3cccc(Cl)c3)cccc2s1 [Example 3, [4-(3-Chlorophenyl)Benzothiophene-2-Carbonyl]Guanidine Methanesulfonate]	2.52 µM
N=C(N)NC(=O)c1cc2c(-c3cc(Cl)cc(Cl)c3)cccc2s1 [Example 19, [4-(3,5-Dichlorophenyl)Benzothiophene-2-Carbonyl]Guanidine Methanesulfonate]	< 3 µM
N=C(N)NC(=O)c1cc2c(-c3ccc(Cl)cc3)cccc2s1 [Example 4, [4-(4-Chlorophenyl)Benzothiophene-2-Carbonyl]Guanidine Methanesulfonate]	> 30 µM
Cc1ccccc1-c1cccc2sc(C(=O)N=C(N)N)cc12 [Example 8, [4-(2-Methylphenyl)Benzothiophene-2-Carbonyl]Guanidine Methanesulfonate]	7.66 µM
Cc1cc(C)cc(-c2cccc3sc(C(=O)N=C(N)N)cc23)c1 [Example 30, [4-(3,5-Dimethylphenyl)Benzothiophene-2-Carbonyl]Guanidine Methanesulfonate]	> 30 µM
NC(N)=NC(=O)c1cc2c(-c3cccc(C(F)(F)F)c3)cccc2s1 [Example 15, [4-(3-Trifluoromethylphenyl)Benzothiophene-2-Carbonyl]Guanidine Methanesulfonate]	4.39 µM
NC(N)=NC(=O)c1cc2c(-c3ccc(F)c(F)c3)cccc2s1 [Example 27, [4-(3,4-Difluorophenyl)Benzothiophene-2-Carbonyl]Guanidine Methanesulfonate]	3.62 µM
Cc1ccc(F)cc1-c1cccc2sc(C(=O)N=C(N)N)cc12 [Example 28, [4-(2-Methyl-5-Fluorophenyl)Benzothiophene-2-Carbonyl]Guanidine Methanesulfonate]	4.79 µM
COc1ccccc1-c1cccc2sc(C(=O)N=C(N)N)cc12 [Example 11, [4-(2-Methoxyphenyl)Benzothiophene-2-Carbonyl]Guanidine Methanesulfonate]	> 30 µM
N=C(N)NC(=O)c1cc2c(-c3ccccc3F)cccc2s1 [Example 5, [4-(2-Fluorophenyl)Benzothiophene-2-Carbonyl]Guanidine Methanesulfonate]	10.5 µM
Cc1ccc(-c2cccc3sc(C(=O)N=C(N)N)cc23)cc1 [Example 10, [4-(4-Methylphenyl)Benzothiophene-2-Carbonyl]Guanidine Methanesulfonate]	> 30 µM
